According to US20220144839A1, “INDOLE AHR INHIBITORS AND USES THEREOF” (Ikena Oncology, Inc., priority 2018, published 2022):

Target: T1, AHR (UniProt P35869)
T1 sequence (P35869 1-848): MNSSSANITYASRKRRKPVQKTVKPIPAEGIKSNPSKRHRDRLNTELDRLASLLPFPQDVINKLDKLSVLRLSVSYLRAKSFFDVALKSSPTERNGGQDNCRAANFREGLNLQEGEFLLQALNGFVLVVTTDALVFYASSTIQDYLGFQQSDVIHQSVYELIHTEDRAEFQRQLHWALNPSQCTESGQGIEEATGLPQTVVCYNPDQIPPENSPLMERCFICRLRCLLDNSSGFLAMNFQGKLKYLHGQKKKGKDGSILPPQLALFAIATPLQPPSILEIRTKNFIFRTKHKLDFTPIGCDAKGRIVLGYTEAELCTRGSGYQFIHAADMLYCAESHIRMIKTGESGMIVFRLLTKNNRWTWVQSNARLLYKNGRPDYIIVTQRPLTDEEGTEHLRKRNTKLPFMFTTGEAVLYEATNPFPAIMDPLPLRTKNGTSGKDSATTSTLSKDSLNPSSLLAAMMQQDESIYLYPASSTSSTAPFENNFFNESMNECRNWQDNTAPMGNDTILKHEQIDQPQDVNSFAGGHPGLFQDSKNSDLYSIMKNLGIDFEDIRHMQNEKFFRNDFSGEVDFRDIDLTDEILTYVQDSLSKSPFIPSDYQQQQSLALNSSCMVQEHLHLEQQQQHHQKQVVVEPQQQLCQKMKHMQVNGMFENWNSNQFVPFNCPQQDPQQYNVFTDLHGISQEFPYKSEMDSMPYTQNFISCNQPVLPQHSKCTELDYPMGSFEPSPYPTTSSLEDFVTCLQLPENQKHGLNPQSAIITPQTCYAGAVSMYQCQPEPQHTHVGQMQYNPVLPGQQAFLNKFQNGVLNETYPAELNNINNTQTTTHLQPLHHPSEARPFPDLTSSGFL
Assay: DRE-Luciferase Reporter Assay (Alternate Method), Example 1B
Format: cell-based
Conditions: concentration which inhibits half of the luciferase activity induced by AHR activating ligand; DRE-luciferase reporter cell line
Description: AHR binds to Dioxin Responsive Elements (DRE) upstream of genes that it activates. One measure of AHR activity is activation of a reporter gene, such as luciferase, downstream of one or multiple DRE elements. Luciferase activity will reflect activation and inhibition of AHR in the cells expressing his reporter.
Murine Hepa1-6 or Hepa-1c1c7 or other murine cell line with a DRE-luciferase reporter either stably or transiently transfected were plated in media in plates (96-well, 384-well or other plates) and incubated overnight at 37° C. in a C02 incubator or compound and agonist were added at the time of plating. Likewise, human HepG2 or other human cell line with a DRE-luciferase reporter either stably or transiently transfected were plated in media in plates (96-well, 384-well or other plates) and incubated overnight at 37° C. in a C02 incubator or compound and agonist were added at the time of plating.
At the time that cells are plated or following incubation overnight, an AHR activating ligand, such as TCDD, kynurenine, ITE (2-(1H-indole-3-ylcarbonyl)-4-thiazolecarboxylic methyl ester), VAF347, BNF (beta-naphthoflavone), FICZ (6-formylindolo(3,2-b) carbazole or other AHR ligands, was added with or without AHR antagonist.
Cells were incubated for 4, 15 or 24 hours or another time point and then lysed for determination of luciferase activity as a read-out of the AHR activation or inhibition. Luciferase was measured with a commercial kit such as the Promega Luciferase kit or any kit or reagents that provide the luciferin substrate for measuring luciferase activity. The level of luciferase with only activating ligand added was the maximum signal while the luciferase with no ligand was the minimum signal. IC50 values were determined as the concentration which inhibits half of the luciferase activity.

Compound | IC50 [nM]
NCc1cnn2c(N[C@@H]3CCc4[nH]c5ccccc5c4C3)nc(-c3cncc(F)c3)nc12 [Compound I-4, (3R)—N-[8-(Aminomethyl)-2-(5-fluoro-3-pyridyl)pyrazolo[1,5-a][1,3,5]triazin-4-yl]-2,3,4,9-tetrahydro-1H-carbazol-3-amine] | < 500
C[C@@H](CO)c1cnn2c(N[C@@H]3CCc4[nH]c5ccccc5c4C3)nc(-c3cncc(F)c3)nc12 [Compound I-25a, (2R)-2-[2-(5-Fluoro-3-pyridyl)-4-[[(3R)-2,3,4,9-tetrahydro-1H-carbazol-3-yl]amino]pyrazolo[1,5-a][1,3,5]triazin-8-yl]propan-1-ol] | < 500
CC(CO)CCNc1nc(-c2cncc(F)c2)nc2c(C(C)C)cnn12 (stereo not drawn) [Compound I-40, 4-[[2-(5-Fluoro-3-pyridyl)-8-isopropyl-pyrazolo[1,5-a][1,3,5]triazin-4-yl]amino]-2-methyl-butan-1-ol] | > 1500
CC(C)c1cnn2c(N[C@@H]3CCc4[nH]c(=O)ccc4C3)nc(-c3cncc(F)c3)nc12 [Compound I-36a, (R)-6-((2-(5-Fluoropyridin-3-yl)-8-isopropylpyrazolo[1,5-a][1,3,5]triazin-4-yl)amino)-5,6,7,8-tetrahydroquinolin-2(1H)-one] | > 1500
CC(C)c1cnn2c(N[C@@H]3CCc4[nH]c5ccccc5c4C3)nc([C@@H]3CCCOC3)nc12 [Compound I-15a, (3R)—N-(8-isopropyl-2-tetrahydropyran-3-yl-pyrazolo[1,5-a][1,3,5]triazin-4-yl)-2,3,4,9-tetrahydro-1H-carbazol-3-amine] | > 1500
CC(C)c1cnn2c(N[C@@H]3CCc4[nH]c5ccccc5c4C3)nc(C3CCOC3)nc12 (stereo partly drawn) [Compound I-17, (3R)—N-(8-isopropyl-2-tetrahydrofuran-3-yl-pyrazolo[1,5-a][1,3,5]triazin-4-yl)-2,3,4,9-tetrahydro-1H-carbazol-3-amine] | 500 to 1000
COCC[C@@H](C)c1cnn2c(N[C@@H]3CCc4[nH]c5ccccc5c4C3)nc(-c3cncc(F)c3)nc12 [Compound I-65b, (3R)—N-[2-(5-fluoro-3-pyridyl)-8-[(1R)-3-methoxy-1-methyl-propyl]pyrazolo[1,5-a][1,3,5]triazin-4-yl]-2,3,4,9-tetrahydro-1H-carbazol-3-amine] | < 500
CC(C)c1cnn2c(N[C@@H]3CCc4[nH]c5ccccc5c4C3)nc(-c3cnsc3)nc12 [Compound I-53, (3R)—N-(8-Isopropyl-2-isothiazol-4-yl-pyrazolo[1,5-a][1,3,5]triazin-4-yl)-2,3,4,9-tetrahydro-1H-carbazol-3-amine] | 500 to 1000
CC(C)c1cnn2c(N[C@@H]3CCc4[nH]c5ccccc5c4C3)nc(-n3cnc4ccccc43)nc12 [Compound I-12, (3R)—N-[2-(Benzimidazol-1-yl)-8-isopropyl-pyrazolo[1,5-a][1,3,5]triazin-4-yl]-2,3,4,9-tetrahydro-1H-carbazol-3-amine] | 1000 to 1500
CC(C)c1cnn2c(N[C@@H]3Cc4[nH]cnc4NC3=O)nc(-c3cncc(F)c3)nc12 [Compound I-62b, (6R)-6-[[2-(5-fluoro-3-pyridyl)-8-isopropyl-pyrazolo[1,5-a][1,3,5]triazin-4-yl]amino]-1,4,6,7-tetrahydroimidazo [4,5-b]pyridin-5-one] | > 1500
C[C@H](CO)c1cnn2c(N[C@@H]3CCc4[nH]c5ccccc5c4C3)nc(-c3cncc(F)c3)nc12 [Compound I-25b, (2S)-2-[2-(5-Fluoro-3-pyridyl)-4-[[(3R)-2,3,4,9-tetrahydro-1H-carbazol-3-yl]amino]pyrazolo[1,5-a][1,3,5]triazin-8-yl]propan-1-ol] | < 500
CC(C)c1cnn2c(N[C@H]3CCc4[nH]c(=O)ccc4C3)nc(-c3cncc(F)c3)nc12 [Compound I-36b, (S)-6-((2-(5-Fluoropyridin-3-yl)-8-isopropylpyrazolo[1,5-a][1,3,5]triazin-4-yl)amino)-5,6,7,8-tetrahydroquinolin-2(1H)-one] | > 1500
CC(C)c1cnn2c(N[C@@H]3CCc4[nH]c5ccccc5c4C3)nc(-n3cccn3)nc12 [Compound I-21, (3R)—N-(8-isopropyl-2-pyrazol-1-yl-pyrazolo[1,5-a][1,3,5]triazin-4-yl)-2,3,4,9-tetrahydro-1H-carbazol-3-amine] | > 1500
CC(C)c1cnn2c(N[C@@H]3Cc4cncnc4NC3=O)nc(-c3cncc(F)c3)nc12 [Compound I-55b, (6R)-6-[[2-(5-fluoro-3-pyridyl)-8-isopropyl-pyrazolo[1,5-a][1,3,5]triazin-4-yl]amino]-6,8-dihydro-5H-pyrido[2,3-d]pyrimidin-7-one] | > 1500
CC(C)c1cnn2c(N[C@H]3Cc4cncnc4NC3=O)nc(-c3cncc(F)c3)nc12 [Compound I-55a] | > 1500
CC(C)c1cnn2c(N[C@H]3CC[C@@H](O)CC3)nc(-c3cncc(F)c3)nc12 [Compound I-44b, 4-[[2-(5-Fluoro-3-pyridyl)-8-isopropyl-pyrazolo[1,5-a][1,3,5]triazin-4-yl]amino]cyclohexanol] | > 1500
CC(C)c1cnn2c(N[C@H]3CCc4c(cc[nH]c4=O)C3)nc(-c3cncc(F)c3)nc12 [Compound I-66b, (6S)-6-[[2-(5-fluoro-3-pyridyl)-8-isopropyl-pyrazolo[1,5-a][1,3,5]triazin-4-yl]amino]-5,6,7,8-tetrahydro-2H-isoquinolin-1-one] | > 1500
CC(C)c1cnn2c(N[C@@H]3CCc4[nH]c5cnccc5c4C3)nc(-c3cncc(F)c3)nc12 [Compound I-13a, (6R)—N-[2-(5-fluoro-3-pyridyl)-8-isopropyl-pyrazolo[1,5-a][1,3,5]triazin-4-yl]-6,7,8,9-tetrahydro-5H-pyrido[3,4-b]indol-6-amine] | > 1500
CC(C)c1cnn2c(N[C@@H]3CCc4[nH]c5ccccc5c4C3)nc(-c3ccc(N4CCOCC4)nc3)nc12 [Compound I-2, (3R)—N-[8-Isopropyl-2-(6-morpholino-3-pyridyl)pyrazolo[1,5-a][1,3,5]triazin-4-yl]-2,3,4,9-tetrahydro-1H-carbazol-3-amine] | > 1500
CC(C)(O)c1cnn2c(N[C@@H]3CCc4[nH]c5ccccc5c4C3)nc(-c3cncc(F)c3)nc12 [Compound I-9, 2-[2-(5-Fluoro-3-pyridyl)-4-[[(3R)-2,3,4,9-tetrahydro-1H-carbazol-3-yl]amino]pyrazolo[1,5-a][1,3,5]triazin-8-yl]propan-2-ol] | < 500
CC(C)c1cnn2c(N[C@@H]3CCc4[nH]c5cccnc5c4C3)nc(-c3cncc(F)c3)nc12 [Compound I-8b, (8R)—N-[2-(5-Fluoro-3-pyridyl)-8-isopropyl-pyrazolo[1,5-a][1,3,5]triazin-4-yl]-6,7,8,9-tetrahydro-5H-pyrido[3,2-b]indol-8-amine] | 1000 to 1500
CC(C)c1cnn2c(N[C@@H]3CCc4[nH]c5c(O)cccc5c4C3)nc(-c3cncc(F)c3)nc12 [Compound I-24a, (6R)-6-[[2-(5-fluoro-3-pyridyl)-8-isopropyl-pyrazolo[1,5-a][1,3,5]triazin-4-yl]amino]-6,7,8,9-tetrahydro-5H-carbazol-1-ol] | > 1500
Fc1cncc(-c2nc(N[C@@H]3CCc4[nH]c5ccccc5c4C3)n3ncc(-c4cnn[nH]4)c3n2)c1 [Compound I-10, (3R)—N-[2-(5-Fluoro-3-pyridyl)-8-(1H-triazol-5-yl)pyrazolo[1,5-a][1,3,5]triazin-4-yl]-2,3,4,9-tetrahydro-1H-carbazol-3-amine] | < 500
C[C@H](O)c1cnc2c(N[C@@H]3CCc4[nH]c5ccccc5c4C3)nc(-c3cncc(F)c3)nn12 [Compound I-42a, (1S)-1-[2-(5-Fluoro-3-pyridyl)-4-[[(3R)-2,3,4,9-tetrahydro-1H-carbazol-3-yl]amino]imidazo[2,1-f][1,2,4]triazin-7-yl]ethanol] | < 500
